≈ marks a conversion by molar mass, not a printed value. Calls of active or inactive are those of the source. No cut-off for these calls is given here.
Assays:
[1] = test system: HeLa; test: Induction of apoptosis in human HeLa cells assessed as accumulation at G1 phase after 24 hrs by flow cytometry; type: functional
[2] = test system: HeLa; test: Increase in TRAIL-R2 protein level in human HeLa cells at 4 ug/ml after 24 hrs by Western blot; type: functional, cell-based
[3] = test system: HeLa; test: Induction of apoptosis in human HeLa cells assessed as accumulation at S phase after 24 hrs by flow cytometry; type: functional
[4] = test system: DLD-1; test: Cell viability in human DLD1/TRAIL-R cells at 8 ug/ml after 24 hrs in presence of TRAIL; type: functional
[5] = test system: DLD-1; test: Cell viability in human DLD1/TRAIL-R cells at 8 ug/ml after 24 hrs; type: functional
[6] = test system: HeLa; test: Induction of apoptosis in human HeLa cells assessed as accumulation at subG1 phase after 24 hrs by flow cytometry; type: functional
[7] = test system: HeLa; test: Cell viability in human HeLa cells at 4 ug/ml after 24 hrs; type: functional
[8] = test system: HeLa; test: Induction of apoptosis in human HeLa cells assessed as early apoptotic cells at 4 ug/ml after 12 hrs by annexin V-FITC/PI staining; type: functional
[9] = test system: HeLa; test: Induction of apoptosis in human HeLa cells assessed as accumulation at subG1 phase after 6 hrs by flow cytometry; type: functional
[10] = test system: HeLa; test: Cytotoxicity against human HeLa cells expressed as ratio of TRAIL-R2 gene expression in cells treated with drug at 5 ug/ml over control after 24 hrs; type: functional
[11] = test system: HeLa; test: Induction of apoptosis in human HeLa cells assessed as accumulation at G1 phase after 6 hrs by flow cytometry; type: functional
[12] = test system: HeLa; test: Increase in TRAIL-R2 protein level in human HeLa cells at 8 ug/ml after 24 hrs by Western blot; type: functional, cell-based
[13] = test system: HeLa; test: Cytotoxicity against human HeLa cells expressed as ratio of Cyr61 gene expression in cells treated with drug at 5 ug/ml over control after 24 hrs; type: functional
[14] = test system: HeLa; test: Induction of apoptosis in human HeLa cells assessed as early apoptotic cells at 4 ug/ml after 24 hrs by annexin V-FITC/PI staining; type: functional
[15] = test system: HeLa; test: Induction of apoptosis in human HeLa cells assessed as accumulation at G1 phase after 12 hrs by flow cytometry; type: functional
[16] = test system: HeLa; test: Induction of apoptosis in human HeLa cells assessed as accumulation at G2/M phase after 12 hrs by flow cytometry; type: functional
[17] = test system: HeLa; test: Reversal of drug-induced apoptosis in human HeLa cells expressing TRAIL-R2/Fc chimera protein after 12 hrs; type: functional, cell-based
[18] = test system: HeLa; test: Induction of apoptosis in human HeLa cells assessed as caspase 3 activity at 4 ug/ml; type: functional, cell-based; conditions: TDE = time-dependent effect
[19] = test system: HeLa; test: Induction of apoptosis in human HeLa cells assessed as accumulation at subG1 phase after 12 hrs by flow cytometry; type: functional
[20] = test system: HeLa; test: Cell viability in human HeLa cells at 4 ug/ml after 24 hrs in presence of TRAIL; type: functional
[21] = test system: DLD-1; test: Upregulation of TRAIL-R2 protein in human DLD1/TRAIL-R cells at 4 ug/ml by Western blot; type: functional, cell-based
[22] = test system: HeLa; test: Cytotoxicity against human HeLa cells after 24 hrs by FMCA; type: functional, cell-based
[23] = test system: HeLa; test: Induction of apoptosis in human HeLa cells assessed as cleavage of caspase 8 at 4 ug/ml after 12 hrs by Western blot; type: functional, cell-based
[24] = test system: HeLa; test: Induction of apoptosis in human HeLa cells assessed as cleavage of caspase 8 at 4 ug/ml after 6 hrs by Western blot; type: functional, cell-based
[25] = test system: HeLa; test: Induction of apoptosis in human HeLa cells assessed as accumulation at S phase after 12 hrs by flow cytometry; type: functional
[26] = test system: HeLa; test: Induction of apoptosis in human HeLa cells assessed as accumulation at S phase after 6 hrs by flow cytometry; type: functional
[27] = test system: HeLa; test: Cytotoxicity against human HeLa cells expressed as ratio of MRCKalpha gene expression in cells treated with drug at 5 ug/ml over control after 24 hrs; type: functional
[28] = test system: HeLa; test: Reversal of drug-induced apoptosis in human HeLa cells in presence of caspase 8 inhibitor z-IETD after 12 hrs by Annexin-PI dual staining; type: functional
[29] = test system: HeLa; test: Increase in NM_003607 mRNA expression in human HeLa cells by RTPCR; type: functional, cell-based
[30] = test system: HeLa; test: Induction of apoptosis in human HeLa cells assessed as accumulation at G2/M phase after 6 hrs by flow cytometry; type: functional
[31] = test system: HeLa; test: Induction of apoptosis in human HeLa cells assessed as accumulation at G2/M phase after 24 hrs by flow cytometry; type: functional
[32] = test system: HeLa; test: Induction of apoptosis in human HeLa cells assessed as late apoptotic cells at 4 ug/ml after 24 hrs by annexin V-FITC and PI staining; type: functional
[33] = test system: HeLa; test: Reversal of drug-induced apoptosis in human HeLa cells ain presence of caspase 9 inhibitor z-LEHD after 12 hrs by Annexin-PI dual staining; type: functional
[34] = test system: DLD-1; test: Upregulation of TRAIL-R2 protein in human DLD1/TRAIL-R cells at 8 ug/ml by Western blot; type: functional, cell-based
[35] = test system: HeLa; test: Cytotoxicity against human HeLa cells expressed as ratio of RHAMM gene expression in cells treated with drug at 5 ug/ml over control after 24 hrs; type: functional
[36] = test system: DLD-1; test: Cytotoxicity against human DLD1/TRAIL-R cells after 24 hrs; type: functional, cell-based; conditions: DLD-1, 24 h
[37] = test system: HeLa; test: Increase in AF016266 mRNA expression in human HeLa cells by RTPCR; type: functional

Question: Which Activity [1] does the source give for `Cc1cc(O)c2c(c1)[C@H](C(C)C)Cc1cc3c(cc1-2)[C@@H](O)[C@@H](C(C)C)c1cc(C)cc(O)c1-3` [PARVIFLORENE F] here?
Answer: Its Activity is 52.1%.

Question: What about the Activity [2] of the same molecule?
Answer: The Activity was “Active”.

Question: What about the Activity [3] of the same molecule?
Answer: The Activity was 5.5%.

Question: What about the Activity [4] of the same molecule?
Answer: The Activity was 20%.

Question: And the Activity [5]?
Answer: Its Activity is 54%.

Question: And the Activity [6]?
Answer: Its Activity is 26.1%.

Question: What about the Activity [7] of the same molecule?
Answer: Its Activity is 44%.

Question: And the Activity [8]?
Answer: Its Activity is 52.7%.

Question: And the Activity [9]?
Answer: The Activity was 10.9%.

Question: And the Ratio [10]?
Answer: The Ratio was 1.44.

Question: And the Activity [11]?
Answer: Its Activity is 56.1%.

Question: What about the Activity [12] of the same molecule?
Answer: The Activity was “Active”.

Question: And the Ratio [13]?
Answer: Its Ratio is 0.61.

Question: What about the Activity [14] of the same molecule?
Answer: The Activity was 41.2%.

Question: And the Activity [15]?
Answer: Its Activity is 41.6%.

Question: And the Activity [16]?
Answer: Its Activity is 16.6%.

Question: What about the Activity [17] of the same molecule?
Answer: The Activity was “Active”.

Question: What about the Activity [18] of the same molecule?
Answer: The Activity was “tde”.

Question: What about the Activity [19] of the same molecule?
Answer: Its Activity is 31.5%.

Question: What about the Activity [20] of the same molecule?
Answer: The Activity was 16%.

Question: What about the Activity [21] of the same molecule?
Answer: Its Activity is “Active”.

Question: And the IC50 [22]?
Answer: Its IC50 is 4.3 µg/mL (≈ 9.72 µM).

Question: And the Activity [23]?
Answer: The Activity was “inactive”.

Question: What about the Activity [24] of the same molecule?
Answer: Its Activity is “Active”.

Question: And the Activity [25]?
Answer: The Activity was 10.3%.

Question: What about the Activity [26] of the same molecule?
Answer: The Activity was 17.3%.

Question: And the Ratio [27]?
Answer: The Ratio was 1.71.

Question: What about the Activity [28] of the same molecule?
Answer: Its Activity is 2.2%.

Question: What about the Activity [29] of the same molecule?
Answer: Its Activity is “Dose-dependent effect”.

Question: What about the Activity [30] of the same molecule?
Answer: Its Activity is 15.6%.

Question: What about the Activity [31] of the same molecule?
Answer: The Activity was 15.3%.

Question: And the Activity [32]?
Answer: The Activity was 22.9%.

Question: What about the Activity [33] of the same molecule?
Answer: The Activity was 4%.

Question: And the Activity [34]?
Answer: The Activity was “Active”.

Question: What about the Ratio [35] of the same molecule?
Answer: The Ratio was 0.68.

Question: And the IC50 [36]?
Answer: The IC50 was 9.2 µg/mL (≈ 20.8 µM).

Question: And the Fold change [37]?
Answer: The Fold change was 4.9.

— ChEMBL document CHEMBL1143147, “A novel sesquiterpenoid dimer parviflorene F induces apoptosis by up-regulating the expression of TRAIL-R2 and a caspase-dependent mechanism” (Bioorg Med Chem, 2008)
